Results: the NIST ThermoML archive (doi:10.1016/j.fluid.2016.08.014)
± gives the expanded uncertainty stated by the source.

What was measured:
[1] = refractive index (Na D-line) (dimensionless); conditions: 298.15 K; 101.33 kPa; Liquid; Standard Abbe refractometry
[2] = Liquid, Vibrating tube method

CN(C)C=O [dimethylformamide]
Conditions | refractive index
[1] | 1.42844 ± 0.00031

[2]
Conditions | mass density [kg/m3]
293.15 K, 100 kPa | 949 ± 1
293.15 K, 2500 kPa | 950 ± 1
293.15 K, 5100 kPa | 952 ± 1
293.15 K, 10100 kPa | 955 ± 1
293.15 K, 15100 kPa | 958 ± 1
293.15 K, 20100 kPa | 960 ± 1
293.15 K, 25000 kPa | 963 ± 1
293.15 K, 30300 kPa | 966 ± 1
298.15 K, 101.33 kPa | 943.978 ± 4
303.15 K, 100 kPa | 939 ± 1
303.15 K, 2500 kPa | 941 ± 1
303.15 K, 5100 kPa | 943 ± 1
303.15 K, 10000 kPa | 940 ± 10
303.15 K, 15100 kPa | 949 ± 1
303.15 K, 20100 kPa | 951 ± 1
303.15 K, 25000 kPa | 954 ± 1
303.15 K, 30100 kPa | 957 ± 1
313.15 K, 100 kPa | 930 ± 1
313.15 K, 2600 kPa | 931 ± 1
313.15 K, 5100 kPa | 933 ± 1
313.15 K, 10000 kPa | 936 ± 1
313.15 K, 15100 kPa | 939 ± 1
313.15 K, 20100 kPa | 942 ± 1
313.15 K, 25000 kPa | 945 ± 1
313.15 K, 30100 kPa | 948 ± 1
323.15 K, 100 kPa | 920 ± 1
323.15 K, 2500 kPa | 922 ± 1
323.15 K, 5100 kPa | 924 ± 1
323.15 K, 10000 kPa | 927 ± 1
323.15 K, 15100 kPa | 930 ± 1
323.15 K, 20100 kPa | 934 ± 1
323.15 K, 25100 kPa | 937 ± 1
323.15 K, 30400 kPa | 940 ± 1
333.15 K, 200 kPa | 910 ± 1
333.15 K, 2600 kPa | 912 ± 1
333.15 K, 5000 kPa | 914 ± 1
333.15 K, 10200 kPa | 918 ± 1
333.15 K, 15000 kPa | 921 ± 1
333.15 K, 20300 kPa | 925 ± 1
333.15 K, 25100 kPa | 928 ± 1
333.15 K, 30200 kPa | 931 ± 1
343.15 K, 200 kPa | 900 ± 1
343.15 K, 2500 kPa | 903 ± 1
343.15 K, 5200 kPa | 905 ± 1
343.15 K, 10000 kPa | 908 ± 1
343.15 K, 15000 kPa | 912 ± 1
343.15 K, 20100 kPa | 916 ± 1
343.15 K, 25100 kPa | 919 ± 1
343.15 K, 30400 kPa | 922 ± 1
353.15 K, 200 kPa | 890 ± 1
353.15 K, 2500 kPa | 893 ± 1
353.15 K, 5100 kPa | 895 ± 1
353.15 K, 10100 kPa | 899 ± 1
353.15 K, 15000 kPa | 903 ± 1
353.15 K, 20100 kPa | 907 ± 1
353.15 K, 25100 kPa | 910 ± 1
353.15 K, 30200 kPa | 914 ± 1
363.15 K, 200 kPa | 881 ± 1
363.15 K, 2600 kPa | 883 ± 1
363.15 K, 5000 kPa | 885 ± 1
363.15 K, 10100 kPa | 890 ± 1
363.15 K, 15100 kPa | 894 ± 1
363.15 K, 20100 kPa | 897 ± 1
363.15 K, 25100 kPa | 901 ± 1
363.15 K, 30100 kPa | 905 ± 1
373.15 K, 100 kPa | 871 ± 1
373.15 K, 2600 kPa | 873 ± 1
373.15 K, 5000 kPa | 876 ± 1
373.15 K, 10100 kPa | 880 ± 1
373.15 K, 15300 kPa | 885 ± 1
373.15 K, 20100 kPa | 888 ± 1
373.15 K, 25100 kPa | 892 ± 1
373.15 K, 30100 kPa | 896 ± 1
383.15 K, 100 kPa | 860 ± 1
383.15 K, 2500 kPa | 863 ± 1
383.15 K, 5100 kPa | 866 ± 1
383.15 K, 10000 kPa | 870 ± 1
383.15 K, 15100 kPa | 875 ± 1
383.15 K, 20200 kPa | 880 ± 1
383.15 K, 25100 kPa | 884 ± 1
383.15 K, 30300 kPa | 888 ± 1
393.15 K, 100 kPa | 851 ± 1
393.15 K, 2600 kPa | 853 ± 1
393.15 K, 5200 kPa | 856 ± 1
393.15 K, 10000 kPa | 861 ± 1
393.15 K, 15000 kPa | 866 ± 1
393.15 K, 20100 kPa | 870 ± 1
393.15 K, 25100 kPa | 875 ± 1
393.15 K, 30400 kPa | 879 ± 1
403.15 K, 100 kPa | 840 ± 1
403.15 K, 2600 kPa | 843 ± 1
403.15 K, 5000 kPa | 846 ± 1
403.15 K, 10100 kPa | 851 ± 1
403.15 K, 15100 kPa | 856 ± 1
403.15 K, 20100 kPa | 861 ± 1
403.15 K, 25100 kPa | 866 ± 1
403.15 K, 30300 kPa | 870 ± 1
413.15 K, 200 kPa | 830 ± 1
413.15 K, 2500 kPa | 833 ± 1
413.15 K, 5000 kPa | 836 ± 1
413.15 K, 10200 kPa | 842 ± 1
413.15 K, 14900 kPa | 847 ± 1
413.15 K, 20000 kPa | 852 ± 1
413.15 K, 25200 kPa | 857 ± 1
413.15 K, 30000 kPa | 861 ± 1
